Data on 26 compounds can be found in patent US11339151B2, “Aliphatic acid amide derivative” (Sumitomo Dainippon Pharma Co., Ltd., priority 2019, dated 2022).

By IC50 is commonly meant the midpoint of a concentration-inhibition curve. A low value points to inhibition by little substance. As a reminder, the Ki is a measure of affinity in units of concentration, obtained from inhibition or displacement. Low values mean higher affinity, high ones lower affinity.

The target in one series is hERG channel (Homo sapiens (Human), UniProt Q12809). Put plainly: Test 5: inhibitory activity for hERG channel (whole cell patch clamp, hERG-CHO cells). It counts as cell-based. As to conditions: hERG-CHO cells, auto patch clamp. Here is the method: Test 5: Evaluation of Inhibitory Activity for hERG Channel
Chain of hERG channel (Q12809 whole entry): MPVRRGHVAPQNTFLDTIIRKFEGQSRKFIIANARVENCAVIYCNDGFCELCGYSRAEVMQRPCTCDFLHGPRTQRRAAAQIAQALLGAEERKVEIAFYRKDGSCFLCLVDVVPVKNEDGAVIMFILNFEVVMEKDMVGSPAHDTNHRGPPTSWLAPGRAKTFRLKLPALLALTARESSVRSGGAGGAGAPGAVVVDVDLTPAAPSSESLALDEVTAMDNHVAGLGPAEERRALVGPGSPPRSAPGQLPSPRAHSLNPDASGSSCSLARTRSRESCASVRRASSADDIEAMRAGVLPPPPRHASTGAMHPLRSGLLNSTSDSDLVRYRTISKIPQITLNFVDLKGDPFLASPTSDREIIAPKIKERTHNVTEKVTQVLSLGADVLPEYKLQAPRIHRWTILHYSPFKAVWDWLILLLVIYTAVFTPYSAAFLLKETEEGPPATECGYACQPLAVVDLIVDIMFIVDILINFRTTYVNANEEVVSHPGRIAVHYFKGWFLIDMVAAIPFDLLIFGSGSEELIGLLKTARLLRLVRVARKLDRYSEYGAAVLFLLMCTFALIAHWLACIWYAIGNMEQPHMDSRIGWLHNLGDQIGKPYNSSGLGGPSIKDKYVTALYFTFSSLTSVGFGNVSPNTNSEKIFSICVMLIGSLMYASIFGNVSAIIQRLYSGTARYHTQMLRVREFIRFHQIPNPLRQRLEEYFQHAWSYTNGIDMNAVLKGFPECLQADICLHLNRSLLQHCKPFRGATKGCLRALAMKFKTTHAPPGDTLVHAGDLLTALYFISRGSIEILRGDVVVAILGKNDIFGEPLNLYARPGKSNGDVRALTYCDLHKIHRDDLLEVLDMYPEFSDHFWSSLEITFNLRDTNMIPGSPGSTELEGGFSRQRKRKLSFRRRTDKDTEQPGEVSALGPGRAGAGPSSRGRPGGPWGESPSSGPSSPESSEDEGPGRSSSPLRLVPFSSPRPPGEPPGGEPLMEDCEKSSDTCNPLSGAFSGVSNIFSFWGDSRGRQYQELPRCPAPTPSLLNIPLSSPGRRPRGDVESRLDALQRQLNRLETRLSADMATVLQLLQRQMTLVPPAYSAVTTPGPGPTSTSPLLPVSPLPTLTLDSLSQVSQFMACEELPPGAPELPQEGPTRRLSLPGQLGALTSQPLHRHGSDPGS
Inhibitory activity of the present compound for hERG channel was measured by whole cell patch clamp method with an auto patch clamp system using CHO cells in which hERG channel involved in human rapidly activating delayed rectifier potassium current (IKr) was forcibly expressed.
hERG-CHO cells purchased from ChanTest Cop. were cultured in a CO2 incubator at 37° C., and dissociated from a flask with trypsin shortly before the measurement of hERG current to prepare a cell suspension.
The cell suspension, the extracellular fluid, the intracellular fluid, and the measurement plate were set in an auto patch clamp system, and hERG current was measured by whole cell patch clamp method. […] Each pulse interval was 15 seconds. The data analysis was carried out with Qube Assay Software (Sophion Sophion). The test was carried out by applying incrementally 4 concentrations of each test compound, and the average of the maximum peak tail currents which were obtained from the last 3 stimulations in each concentration was determined as the evaluated data.
(In general: The hERG channel carries a current that helps repolarise heart muscle cells.)

Series [1] in a line: Test 3-1: metabolic stability test in human hepatic microsome. It is filed as in vitro ADME. Particulars: microsome 0.1 mg/mL, test compound 0.1 μmol/L, 37° C., 30 minutes. Here is the method: Test 3-1: Metabolic Stability Test in Human Hepatic Microsome
The metabolic stability of the present compound in human hepatic microsome was evaluated as mentioned below. Human hepatic microsome was obtained from Xenontech. Human hepatic microsome, NADPH, and each test compound were mixed in 25 mmol/L phosphate buffer solution (pH 7.4) to reach the following concentrations as shown below, and the mixture was incubated at 37° C. for 30 minutes. • Human hepatic microsome: 0.1 mg/mL • NADPH: 3.2 mmol/L • Test compound: 0.1 μmol/L
The residual ratio of test compound in each sample after 30 minutes was measured by LC-MS, and the metabolic stability in human hepatic microsome was calculated from the following formula. Metabolic stability in human hepatic microsome (mL/min/mg protein)=−LN (residual ratio)/30/0.1

The target in series [2] is T1, human 5-HT7 receptor (Homo sapiens (Human), UniProt P34969). The series is described as follows: Test 2: antagonist activity for human 5-HT7 receptor (aequorin luminescence, CHO-K1 cells). Particulars: Gα16. It counts as cell-based. Here is the method: Test 2: Evaluation of Antagonist Activity for Human 5-HT2A Receptor and Human 5-HT7 Receptor
T1 sequence (P34969 whole entry): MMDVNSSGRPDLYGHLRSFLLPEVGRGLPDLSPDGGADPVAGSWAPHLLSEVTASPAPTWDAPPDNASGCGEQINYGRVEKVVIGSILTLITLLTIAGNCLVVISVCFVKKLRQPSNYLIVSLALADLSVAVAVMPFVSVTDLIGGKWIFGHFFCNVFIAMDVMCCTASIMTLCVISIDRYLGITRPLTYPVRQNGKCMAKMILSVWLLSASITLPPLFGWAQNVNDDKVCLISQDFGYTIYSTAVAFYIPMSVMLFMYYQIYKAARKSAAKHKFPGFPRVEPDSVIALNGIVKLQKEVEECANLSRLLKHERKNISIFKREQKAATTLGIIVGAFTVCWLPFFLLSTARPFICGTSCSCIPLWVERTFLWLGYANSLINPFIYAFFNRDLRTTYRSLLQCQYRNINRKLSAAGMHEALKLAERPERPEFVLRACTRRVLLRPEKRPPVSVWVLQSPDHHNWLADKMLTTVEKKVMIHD
Aequorin, Gα 16 protein, and each receptor were transiently expressed in CHO-K1 cells (Chinese hamster ovary). The cells were cultivated in a CO2 incubator at 37° C. overnight, seeded into a 384-well plate, and stood at room temperature for 2 hours. Each compound dissolved in DMSO was added thereto, and changes in luminescence were measured by FDSS/μCELL drug discovery screening support system (Hamamatsu Photonics K.K.). As for antagonist activity, inhibitory activity of each compound was calculated by setting the luminescence level of wells to which 10 μmol/L endogenous ligand was added as 100%.

The target of series [3] is T1, human 5-HT7 receptor. The series is described as follows: Test 1: binding activity for human 5-HT7 receptor ([3H]SB-269970, CHO cell membrane fraction). As to conditions: [3H]SB-269970, room temperature 60 minutes. Here is the method:
(§1) Ki value was evaluated from dissociation constant which was calculated from saturated binding tests, and a substrate concentration, and it was used as an index for binding affinity.

For the next series, the target named is human D2 receptor (Homo sapiens (Human), UniProt P14416). The series is described as follows: Test 1: binding activity for human D2 receptor ([3H]Spiperone, CHO cell membrane fraction). As to conditions: [3H]Spiperone, room temperature 60 minutes. Here is the method:
as §1

Chain of human D2 receptor (P14416 whole entry): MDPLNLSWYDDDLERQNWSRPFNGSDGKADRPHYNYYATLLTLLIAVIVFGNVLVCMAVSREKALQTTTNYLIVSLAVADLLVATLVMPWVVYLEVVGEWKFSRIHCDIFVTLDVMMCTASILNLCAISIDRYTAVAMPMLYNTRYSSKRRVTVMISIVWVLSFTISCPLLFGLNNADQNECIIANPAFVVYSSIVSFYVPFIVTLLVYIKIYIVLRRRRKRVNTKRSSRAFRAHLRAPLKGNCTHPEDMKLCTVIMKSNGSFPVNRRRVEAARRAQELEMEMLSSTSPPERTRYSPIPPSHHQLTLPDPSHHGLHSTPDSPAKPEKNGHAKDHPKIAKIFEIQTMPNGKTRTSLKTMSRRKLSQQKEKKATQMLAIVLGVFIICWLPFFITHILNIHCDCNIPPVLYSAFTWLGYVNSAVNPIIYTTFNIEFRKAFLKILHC

As to `[2H]C(C)(O)C(=O)N(CC)CCN1CCC(c2noc3cc(F)ccc23)CC1` (stereo not shown) [Example 40], at hERG channel, the IC50 was 9900 nM. For the same compound, the “Metabolic stability in human hepatic microsome” value (“Metabolic stability” below) in series [1] is below 0.05 mL/min/mg protein.
`CCN(CCN1CCC(c2noc3cc(F)ccc23)CC1)C(=O)C(C)O` (stereo not shown) [Example 4] returned a half-inhibitory concentration (IC50) on hERG channel of 7100 nM. The “Metabolic stability” value in series [1] is on record as below 0.05 mL/min/mg protein.
Compound `CCN(CCN1CCC(c2c[nH]c3cc(F)ccc23)CC1)C(=O)[C@H](C)O` [Example 20, (2S)—N-Ethyl-N-{2-[4-(6-fluoro-1H-indol-3-yl)piperidin-1-yl]ethyl}-2-hydroxypropanamide] returned an IC50 against human 5-HT7 receptor [2] of 48 nM. For the same compound, the “Metabolic stability” value in series [1] is reported as below 0.05 mL/min/mg protein. Also, the Ki was determined as 1.5 nM at human 5-HT7 receptor [3] and 46 nM at human D2 receptor.
As to `CC(C)N(CCN1CCC(c2noc3cc(F)ccc23)CC1)C(=O)[C@H](C)O` [Example 41], the figures for the IC50 at hERG channel and against human 5-HT7 receptor [2] were 6700 nM and 7 nM, respectively. Besides, the “Metabolic stability” value in series [1] is listed as below 0.05 mL/min/mg protein. In addition, the Ki was 1.8 nM at human 5-HT7 receptor [3] and below 100 nM at human D2 receptor.
With `CCN(CCN1CCC(c2noc3cc(F)ccc23)CC1)C(=O)C1(O)CCNC1` (stereo not shown) [Example 70], the IC50 was above 10000 nM at hERG channel and 9 nM at human 5-HT7 receptor [2]. Moreover, in series [1], the “Metabolic stability” value was below 0.05 mL/min/mg protein. The Ki came to 3.7 nM on human 5-HT7 receptor [3] and 52 nM on human D2 receptor.
In turn, `CCN(CCN1CCC(c2noc3cc(F)ccc23)CC1)C(=O)C(F)(F)CO` [Example 36] registered an IC50 against human 5-HT7 receptor [2] of 82 nM. Further, the “Metabolic stability” value in series [1] is recorded as below 0.05 mL/min/mg protein. Besides, the Ki on human 5-HT7 receptor [3] came to 1 nM; at human D2 receptor it was 80 nM.
For the compound `CCN(CCN1CCC(c2noc3cc(F)ccc23)CC1)C(=O)C1CCCCC1O` (stereo not shown) [Example 33], the figures for the IC50 against hERG channel and against human 5-HT7 receptor [2] were 2200 nM and 59 nM, respectively. For the same compound, the “Metabolic stability” value in series [1] was 0.268 mL/min/mg protein. Besides, the Ki came out at 1.6 nM at human 5-HT7 receptor [3] and 55 nM at human D2 receptor.
At human 5-HT7 receptor [2], `CCN(CCN1CCC(c2noc3cc(Cl)ccc23)CC1)S(=O)(=O)CCO` [Example 60] gave an IC50 of 72 nM. In addition, the Ki at human 5-HT7 receptor [3] is 24.3 nM; on human D2 receptor, above 1000 nM.
Regarding `CC(O)C(=O)N(CC#N)CCN1CCC(c2noc3cc(F)ccc23)CC1` (stereo not shown) [Example 32], at human 5-HT7 receptor [2], half-maximal inhibition (IC50) required 73 nM. In addition, the Ki at human 5-HT7 receptor [3] was 110 nM; at human D2 receptor, above 10000 nM.
With `CCN(CCN1CCC(c2noc3cc(F)ccc23)CC1)C(=O)[C@H]1CC[C@H](O)CC1` [Example 43], the IC50 at human 5-HT7 receptor [2] was 82 nM. The “Metabolic stability” value in series [1] is listed as below 0.05 mL/min/mg protein. The Ki was 4.3 nM on human 5-HT7 receptor [3] and below 100 nM at human D2 receptor.
In turn, `CCN(CCN1CCC(c2noc3cc(F)ccc23)CC1)C(=O)C1CN(C(C)=O)CC1O` (stereo not shown) [Example 73] returned an IC50 against human 5-HT7 receptor [2] of 81 nM. The Ki at human 5-HT7 receptor [3] amounted to 14.4 nM; at human D2 receptor, 205 nM.
In turn, `CCN(CCN1CCC(c2noc3cc(F)ccc23)CC1)C(=O)[C@H]1NCC[C@H]1O` [Example 68] returned an IC50 on human 5-HT7 receptor [2] of 91 nM. For the same compound, the “Metabolic stability” value in series [1] is reported as below 0.05 mL/min/mg protein. The Ki worked out at 48.5 nM on human 5-HT7 receptor [3] and 910 nM on human D2 receptor.
For `CCN(CCN1CCC(c2noc3cc(F)ccc23)CC1)C(=O)[C@@H](C)O` [Example 1, (2R)—N-Ethyl-N-{2-[4-(6-fluoro-1,2-benzoisoxazol-3-yl)piperidin-1-yl]ethyl}-2-hydroxypropanamide], at hERG channel, the IC50 was 4800 nM. The “Metabolic stability” value in series [1] is recorded as below 0.05 mL/min/mg protein.
At human 5-HT7 receptor [2], `CCN(CCCN1CCC(c2noc3ccccc23)CC1)S(=O)(=O)C(C)CO` (stereo not shown) [Example 54] displayed an IC50 of 1 nM. Also, the “Metabolic stability” value in series [1] was below 0.05 mL/min/mg protein. Further, the results for the Ki at human 5-HT7 receptor [3] and on human D2 receptor were 2.6 nM and 116 nM, respectively.
In the case of `CCN(CCN1CCC(c2noc3ccc(C)cc23)CC1)C(=O)[C@H](C)O` [Example 14], the IC50 against hERG channel was 9600 nM; against human 5-HT7 receptor [2] it was 82 nM. Besides, the Ki was 14.6 nM at human 5-HT7 receptor [3] and above 1000 nM on human D2 receptor.
For the compound `CCN(CCN1CCC(c2noc3cc(F)ccc23)CC1)C(=O)CO` [Example 12], the IC50 against hERG channel is 2200 nM; against human 5-HT7 receptor [2] it was 82 nM. Moreover, the “Metabolic stability” value in series [1] stood at 0.089 mL/min/mg protein. In addition, at human 5-HT7 receptor [3], the Ki worked out at 6.9 nM.
As to `CCN(CCN1CCC(n2ncc3cc(F)ccc32)CC1)C(=O)[C@@H](C)O` [Example 3, (2R)—N-Ethyl-N-{2-[4-(5-fluoro-1H-indazol-1-yl)piperidin-1-yl]ethyl}-2-hydroxypropanamide], the IC50 on hERG channel is above 10000 nM. For the same compound, the “Metabolic stability” value in series [1] is listed as below 0.05 mL/min/mg protein. At human D2 receptor, this compound registered a Ki above 1000 nM.
The compound `C#CC(O)C(=O)N(CC)CCN1CCC(c2noc3cc(F)ccc23)CC1` (stereo not shown) [Example 28] returned an IC50 at human 5-HT7 receptor [2] of 80 nM. Besides, the Ki at human 5-HT7 receptor [3] was 10 nM; at human D2 receptor it was below 100 nM.
With `CCN(CCN1CCC(c2noc3cc(F)ccc23)CC1)C(=O)C1CCC(O)CC1` (stereo not shown) [Example 9], it took 8 nM to reach half-maximal inhibition against human 5-HT7 receptor [2] (IC50). Moreover, the “Metabolic stability” value in series [1] is given as below 0.05 mL/min/mg protein. The Ki at human 5-HT7 receptor [3] was 1.6 nM; on human D2 receptor, below 100 nM.
For `CCN(CCN1CCC(c2noc3cc(Cl)ccc23)CC1)C(=O)[C@H](C)O` [Example 15], on human 5-HT7 receptor [2], half-maximal inhibition (IC50) was put at 86 nM. The Ki at human 5-HT7 receptor [3] was 26.4 nM; at human D2 receptor, above 1000 nM.
Turning to `CCCN(CCN1CCC(c2noc3cc(F)ccc23)CC1)C(=O)C(C)O` (stereo not shown) [Example 39], the 50% inhibitory concentration (IC50) against human 5-HT7 receptor [2] was 9 nM. In addition, the “Metabolic stability” value in series [1] is recorded as below 0.05 mL/min/mg protein. In addition, the Ki on human 5-HT7 receptor [3] is 0.7 nM; at human D2 receptor it was below 100 nM.
The compound `CCN(CCN1CCC(n2ncc3cc(F)ccc32)CC1)C(=O)[C@H](C)O` [Example 21, (2S)—N-Ethyl-N-{2-[4-(5-fluoro-1H-indazol-1-yl)piperidin-1-yl]ethyl}-2-hydroxypropanamide] had an IC50 on hERG channel of 15300 nM. Besides, in series [1], the “Metabolic stability” value was below 0.05 mL/min/mg protein. The Ki on human D2 receptor is above 1000 nM.
Consider `CCN(CCCN1CCN(c2noc3cc(F)ccc23)CC1)S(=O)(=O)C(C)CO` (stereo not shown) [Example 55], for which, on human 5-HT7 receptor [2], half-maximal inhibition (IC50) required 3 nM. For the same compound, the “Metabolic stability” value in series [1] is on record as 0.059 mL/min/mg protein. Further, the figures for the Ki on human 5-HT7 receptor [3] and at human D2 receptor were 0.1 nM and 78 nM, respectively.
On human 5-HT7 receptor [2], `CCN(CCN1CCC(c2noc3cc(F)ccc23)CC1)C(=O)[C@H]1CC[C@@H](O)CC1` [Example 44] gave an IC50 of 77 nM. For the same compound, the “Metabolic stability” value in series [1] is below 0.05 mL/min/mg protein. Further, the Ki on human 5-HT7 receptor [3] was 3.2 nM; at human D2 receptor, below 100 nM.
`CCN(CCN1CCC(c2noc3cc(F)ccc23)CC1)C(=O)C(O)CN` (stereo not shown) [Example 65, 3-Amino-N-ethyl-N-{2-[4-(6-fluoro-1,2-benzoisoxazol-3-yl)piperidin-1-yl]ethyl}-2-hydroxypropanamide] gave an IC50 on human 5-HT7 receptor [2] of 81 nM. Further, the “Metabolic stability” value in series [1] was below 0.05 mL/min/mg protein. Also, the Ki at human 5-HT7 receptor [3] came out at 7.6 nM; at human D2 receptor, 195 nM.
With `CCN(CCN1CCC(c2noc3cc(F)ccc23)CC1)C(=O)C1CC(O)C1` (stereo not shown) [Example 46], the IC50 against human 5-HT7 receptor [2] is 83 nM. Besides, in series [1], the “Metabolic stability” value is below 0.05 mL/min/mg protein. Moreover, the Ki was 4.2 nM on human 5-HT7 receptor [3] and 75 nM on human D2 receptor.
